Source: US10975082B2, “Inhibitor of FLT3 kinase and use thereof” (PRECEDO PHARMACEUTICALS CO., LTD, priority 2016, dated 2021)

Assays:
[1] = tested on: MOLM-13, MOLM-14 and MV-4-11 cell lines; test: Cell cycle distribution by flow cytometry (PI); type: cell-based, human; details: MOLM-13, MOLM-14 and MV-4-11, 12 or 24 hours; Compound 1 0.01-0.1 μM, AC220 0.1 μM
BaF3 = test: Cell proliferation, Cell Titer-Glo, GI50; type: cell-based; details: Mus musculus; BaF3, 72 hours
Protocol: (§1) Compounds of the invention were evaluated for their inhibitory effects on proliferation of cancer cells as well as the selectivity thereof by testing their effects on growth of cancer cells (Table 2).
(§2) In this example the following cells were selected: human acute myeloid leukemia cells MV-4-11 (expressing FLT3[ITD] mutant gene), human acute myeloid leukemia cells MOLM-13 (expressing FLT3[ITD] mutant gene and wild-type FLT3 gene), human acute myeloid leukemia cells MOLM-14 (expressing FLT3[ITD] mutant gene and wild-type FLT3 gene), human acute myeloid leukemia cells OCI-AML3 (expressing FLT3[A680V] mutant gene), human acute myeloid leukemia cells U937 (expressing wild-type FLT3 gene), and mouse pro-B cells BaF3, and the above cells were purchased from ATCC.
(§3) Then the number of viable cells was determined by quantification of ATP in living cells using Cell Titer-Glo® (Promega, the USA) Luminescent Cell Viability Assay kit and thereby GI50 was calculated.

BaF3-TEL-FLT3 [D835Y] = test: Cell proliferation, Cell Titer-Glo, GI50; type: cell-based; details: Mus musculus, 72 hours
Protocol: as §1
(§4) Mouse BaF3-FLT3[ITD] (stably expressing FLT3[ITD] mutant activated kinase), mouse tel-BaF3-FLT3-D835Y (stably expressing FLT3[D835Y]mutant activated kinase), mouse tel-BaF3-BMX (stably expressing BMX kinase), mouse tel-FLT3-BaF3 (stably expressing FLT3 kinase), mouse BaF3-FLT3-ITD-D835Y (stably expressing FLT3[ITD+D835Y]mutant activated kinase), mouse BaF3-FLT3-ITD-F691L (stably expressing FLT3[ITD+F691L]mutant activated kinase), mouse tel-cKIT-BaF3 (stably expressing cKIT kinase), mouse BaF3-tel-cKit-N882K (stably expressing cKIT-N882K mutant activated kinase), mouse BaF3-tel-cKit-D816V (stably expressing cKIT-D816V mutant activated kinase), mouse BaF3-tel-cKit-T670I (stably expressing cKIT-T670I mutant activated kinase), mouse TPR-MET-BaF3 (stably expressing MET kinase), mouse tel-BaF3-EGFR (stably expressing EGFR kinase), mouse BaF3-FL-EGFR-L858R (stably expressing EGFR[L858R]mutant activated kinase), mouse tel-BaF3-BLK (stably expressing BLK kinase), mouse tel-JAK1-BaF3 (stably expressing JAK1 kinase) and the like were also used (see Table 2 for details). The above cell lines were all constructed by our laboratory according to the following method: the kinase region sequences of human FLT3/ITD, FLT3 D835Y, BMX, FLT3, FLT3[ITD+D835Y], FLT3[ITD+F691L], cKIT, cKIT [N882K], cKIT [D816V], cKIT [T670I], MET, EGFR, EGFR [L858R], BLK, JAK1, FLT3[K663Q], FLT3[D835V], FLT3[D835H], PDGFRa, PEGFRb, VEGFR2, JAK2, JAK3, ABL were amplified by PCR, and inserted into MSCV-Puro vectors with N-terminal TEL or TPR fragments (purchased from Clontech), respectively. The vectors were stably transfected into mouse BaF3 cells (purchased from ATCC) by means of retrovirus, and the growth factor IL-3 were removed, eventually obtaining cell lines that are transferred protein (FLT3/ITD, FLT3 D835Y, BMX, FLT3, FLT3[ITD D835Y], FLT3[ITD+F691L], cKIT, cKIT [N882K], cKIT [D816V], cKIT [T670I], MET, EGFR, EGFR [L858R], BLK, JAK1, FLT3[K663Q], FLT3[D835V], FLT3[D835H], PDGFRa, PEGFRb, VEGFR2, JAK2, JAK3, ABL)-dependent.
as §3

BaF3-TEL-cKit [N882K] = test: Cell proliferation, Cell Titer-Glo, GI50; type: cell-based; details: Mus musculus, 72 hours
Protocol: as §1, §4, §3

BaF3-FLT3 [ITD] = test: Cell proliferation, Cell Titer-Glo, GI50; type: cell-based; details: Mus musculus, Ba/F3 FLT3-ITD, 72 hours
Protocol: as §1, §4, §3

BaF3-TEL-cKit [D816V] = test: Cell proliferation, Cell Titer-Glo, GI50; type: cell-based; details: Mus musculus, 72 hours
Protocol: as §1, §4, §3

BaF3-TEL-FLT3 [K663Q] = test: Cell proliferation, Cell Titer-Glo, GI50; type: cell-based; details: Mus musculus, 72 hours
Protocol: as §1, §4, §3

BaF3-TEL-FLT3 [D835V] = test: Cell proliferation, Cell Titer-Glo, GI50; type: cell-based; details: Mus musculus, 72 hours
Protocol: as §1, §4, §3

BaF3-TEL-FLT3 = test: Cell proliferation, Cell Titer-Glo, GI50; type: cell-based; details: Mus musculus; BaF3-TEL-FLT3, 72 hours
Protocol: as §1, §4, §3

BaF3-FLT3 [ITD + D835Y] = test: Cell proliferation, Cell Titer-Glo, GI50; type: cell-based; details: Mus musculus, Ba/F3 FLT3-ITD, 72 hours
Protocol: as §1, §4, §3

BaF3-TEL-cKIT = test: Cell proliferation, Cell Titer-Glo, GI50; type: cell-based; details: Mus musculus, 72 hours
Protocol: as §1, §4, §3

MOLM-14 = test: Cancer cell proliferation, Cell Titer-Glo, GI50; type: cell-based; details: Homo sapiens; MOLM-14, 72 hours
Protocol: as §1, §2, §3

MV-4-11 = test: Cancer cell proliferation, Cell Titer-Glo, GI50; type: cell-based; details: Homo sapiens, MV4-11; MV-4-11, 72 hours
Protocol: as §1, §2, §3

U937 = test: Cancer cell proliferation, Cell Titer-Glo, GI50; type: cell-based; details: Homo sapiens, U-937; U937, 72 hours
Protocol: as §1, §2, §3

| Structure (SMILES) | cell cycle distribution [1] | GI50 (BaF3) [µM] | GI50 (BaF3-TEL-FLT3 [D835Y]) [µM] | GI50 (BaF3-TEL-cKit [N882K]) [µM] | GI50 (BaF3-FLT3 [ITD]) [µM] | GI50 (BaF3-TEL-cKit [D816V]) [µM] | GI50 (BaF3-TEL-FLT3 [K663Q]) [µM] | GI50 (BaF3-TEL-FLT3 [D835V]) [µM] | GI50 (BaF3-TEL-FLT3) [µM] | GI50 (BaF3-FLT3 [ITD + D835Y]) [µM] | GI50 (BaF3-TEL-cKIT) [µM] | GI50 (MOLM-14) [µM] | GI50 (MV-4-11) [µM] | GI50 (U937) [µM] |
| --- | --- | --- | --- | --- | --- | --- | --- | --- | --- | --- | --- | --- | --- | --- |
| CC(C)(C)c1cc(NC(=O)Nc2ccc(-c3cn4c(n3)sc3cc(OCCN5CCOCC5)ccc34)cc2)no1 [AC220, reference compound] | similar |  |  |  |  |  |  |  |  |  |  |  |  |  |
| CC(C)CNC(=O)Nc1ccc(-n2nc(-c3ccc(OCCN4CCOCC4)cc3)c3c(N)ncnc32)cc1 [Compound 4, 1-(4-(4-amino-3-(4-(2-morpholinoethoxy)phenyl)-1H-pyrazolo[3,4-d]pyrimidin-1-yl)phenyl)-3-isobutylurea] |  | > 10 | > 10 | > 10 | 1.1 | > 10 | > 10 | > 10 | 5.4 | > 10 | > 10 | 2.5 | 2.8 | > 10 |
| CN(C)CCNC(=O)Nc1ccc(-n2nc(-c3ccc(OCCN4CCOCC4)cc3)c3c(N)ncnc32)cc1 [Compound 5, 1-(4-(4-amino-3-(4-(2-morpholinoethoxy)phenyl)-1H-pyrazolo[3,4-d]pyrimidin-1-yl)phenyl)-3-(2-(dimethylamino)ethyl)urea] |  | 3.8 | 1.3 | 3.3 | 0.1 | 8.3 | 3.7 | 1.7 | 0.32 | 1.3 | 3.5 | 0.13 | 0.082 | 9.2 |
| CC(C)(C)c1ccc(NC(=O)Nc2ccc(-n3nc(-c4ccc(OCCN5CCOCC5)cc4)c4c(N)ncnc43)cc2)cc1 [Compound 10, 1-(4-(4-amino-3-(4-(2-morpholinoethoxy)phenyl)-1H-pyrazolo[3,4-d]pyrimidin-1-yl)phenyl)-3-(4-(tert-butyl)phenyl)urea] |  | > 10 | 4.4 | 1.1 | 0.024 | 4.4 | > 10 | 4.5 | 0.19 | 4.4 | 0.99 | 0.081 | 0.063 | 8.5 |
| Nc1ncnc2c1c(-c1ccc(OCCN3CCOCC3)cc1)nn2-c1ccc(NC(=O)Nc2ccc(Cl)c(C(F)(F)F)c2)cc1 [Compound 12, 1-(4-(4-amino-3-(4-(2-morpholinoethoxy)phenyl)-1H-pyrazolo[3,4-d]pyrimidin-1-yl)phenyl)-3-(4-chloro-3-(trifluoromethyl)phenyl)urea] |  | 3 | 1.6 | 0.096 | 0.003 | 4 | 5.4 | 0.21 | 0.012 | 1.6 | 0.14 | 0.003 | 0.003 | 2.4 |
| CCN1CCN(Cc2ccc(-c3nn(-c4ccc(NC(=O)Nc5cc(C(C)(C)C)on5)cc4)c4ncnc(N)c34)cc2)CC1 [Compound 20, 1-(4-(4-amino-3-(4-((4-ethylpiperazin-1-yl)methyl)phenyl)-1H-pyrazolo[3,4-d]pyrimidin-1-yl)phenyl)-3-(5-(tert-butyl)isoxazol-3-yl)urea] |  | 2.5 | 0.24 | 0.009 | 0.0009 | 1.9 | 1.6 | 0.008 | 0.002 | 0.24 | 0.04 | < 0.0003 | < 0.0003 | 1.7 |
| CC(C)(C)c1cc(NC(=O)Nc2ccc(-n3nc(-c4ccc(CN5CCOCC5)cc4)c4c(N)ncnc43)cc2)no1 [Compound 23, 1-(4-(4-amino-3-(4-(morpholinomethyl)phenyl)-1H-pyrazolo[3,4-d]pyrimidin-1-yl)phenyl)-3-(5-(tert-butyl)isoxazol-3-yl)urea] |  | 5.9 | 0.001 |  |  |  | 5.4 |  | < 0.0003 |  | 0.012 | < 0.0003 | < 0.0003 | 4.1 |
| CC(C)(C)c1cc(NC(=O)Nc2ccc(-n3nc(-c4cccnc4)c4c(N)ncnc43)cc2)no1 [Compound 26, 1-(4-(4-amino-3-(pyridin-3-yl)-1H-pyrazolo[3,4-d]pyrimidin-1-yl)phenyl)-3-(5-(tert-butyl)isoxazol-3-yl)urea] |  | > 10 | 0.61 | 0.029 | 0.0007 | 7.6 | > 10 | 0.02 | 0.001 | 0.61 | 0.038 | 0.001 | < 0.0003 | > 10 |
| CC(C)(C)c1cc(NC(=O)Nc2ccc(-n3nc(-c4ccc(NS(C)(=O)=O)cc4)c4c(N)ncnc43)cc2)no1 [Compound 27] |  | > 10 | 0.6 | 0.051 | 0.001 | > 10 | > 10 | 0.022 | 0.002 | 0.6 | 0.12 | 0.001 | 0.0006 | > 10 |
| CC(C)(C)c1cc(NC(=O)Nc2ccc(-n3nc(-c4ccc(N5CCOCC5)nc4)c4c(N)ncnc43)cc2)no1 [Compound 28, 1-(4-(4-amino-3-(6-morpholinopyridin-3-yl)-1H-pyrazolo[3,4-d]pyrimidin-1-yl)phenyl)-3-(5-(tert-butyl)isoxazol-3-yl)urea] |  | 6.9 | 0.003 |  | 0.002 |  | > 10 |  | 0.004 |  | 0.041 | 0.002 | 0.001 | > 10 |
